As usually defined, the IC50 is the midpoint of a concentration-inhibition curve.

Where a name gives a salt, the structure may show the parent alone.

The subject of this test is A2780 cells. As to the kind of experiment: In vitro cell proliferation assay (WST-1 assay). Conditions: Homo sapiens, total incubation time 72 h, WST-1 readout. It is filed as cell-based. How it is done: A2780 cells were seeded in 96-well plates at 3×10^3 cells/well in 100 μL of culture medium, 8 wells were left empty for media only controls.
After 24 h the compound titrations were performed, in a separate dilution plate, by serially diluting the compounds of general formula (I) in culture medium. A 100 μL of each dilution was added to the plated cells, this was done in triplicate, and controls (e.g. DMSO and blanks) were included. The plates were incubated for 24 h at 37° C. in a CO2 incubator. The compound titrations were repeated in a separate dilution plate after 24 h. The media plus compound from the assay plates were then aspirated. A 100 μL of media was then added to all wells, followed by 100 μL of each compound dilution. The plates were incubated for a further 48 h at 37° C. in a CO2 incubator (total incubation time 72 h). The number of viable cells was then assessed using Cell Proliferation Reagent WST-1. 10 μL of WST-1 reagent added to each well and incubated for one to four hours at 37° C. in CO2 incubator. The absorbance was measured (450 nm/690 nm).
The activity of compounds of general formula (I) in reducing the number of viable cells was calculated as:
% activity=[(S^c−B)/(S^o−B)]×100
S^c denotes signal measured in the presence of test compound, S^o denotes signal detected in the absence of compound, and B denotes background signal, measured in blank wells containing medium only. Analyse data using GraphPad Prism.
Take `CS(=O)(=O)N(CCCCCCCCN/C(=N\C#N)Nc1ccncc1)OCC1CCCCC1` [Compound 1124, N-(8-(2-cyano-3-(pyridin-4-yl)guanidino)octyl)-N-(cyclohexylmethoxy)methanesulfonamide]: the half-inhibitory concentration (IC50) stood at 0.15 nM.
With `N#C/N=C(\NCCCCCCCN(CCCN1CCOCC1)S(=O)(=O)C1CCCCC1)Nc1ccncc1` [Compound 1010, N-(7-(2-cyano-3-(pyridin-4-yl)guanidino)heptyl)-N-(3-morpholinopropyl)cyclohexanesulfonamide] the figure was 0.002 nM; with `O=C(NCCCCCCCCN(CCCN1CCOCC1)S(=O)(=O)C1CCCC1)NCc1cccnc1` [Compound 1012, N-(3-morpholinopropyl)-N-(8-(3-(pyridin-3-ylmethyl)ureido)octyl)cyclopentanesulfonamide], 0.09 nM; with `N#C/N=C(\NCCCCCCCCN(CCF)S(=O)(=O)C1CCCCC1)Nc1ccncc1` [Compound 1103], 0.005 nM.
In the case of `N#C/N=C(\NCCCCCCCCN(CCCN1CCOCC1)C(=O)NC1CCCCC1)Nc1ccncc1` [Compound 1093, 1-(8-(2-cyano-3-(pyridin-4-yl)guanidino)octyl)-3-cyclohexyl-1-(morpholinopropyl)urea], the IC50 was 0.063 nM.
With `N#C/N=C(\NCCCCCCCN(CCF)S(=O)(=O)C1CCCCC1)Nc1ccncc1` [Compound 1098, N-(7-(2-cyano-3-(pyridin-4-yl)guanidino)heptyl)-N-(2-fluoroethyl)cyclohexansylfonamide] the figure was 0.07 nM; with `N#C/N=C(\NCCCCCCCCN(CCCN1CCOCC1)C(=O)c1ccccc1)Nc1cccnc1` [Compound 1076, N-(8-(2-cyano-3-(pyridin-3-yl)guanidino)octyl)-N-(3-morpholinopropyl)benzamide], 0.075 nM.
Compound `CS(=O)(=O)N(CCCCCCCN/C(=N\C#N)Nc1ccncc1)OCC1CCCCC1` [Compound 1118, N-(7-(2-cyano-3-(pyridin-4-yl)guanidino)heptyl)-N-(cyclohexylmethoxy)methanesulfonamide] yielded an IC50 of 0.046 nM.
Compound `N#C/N=C(\NCCCCCCN(CCCN1CCOCC1)C1CCCCC1)Nc1ccncc1` [Compound 1003, 2-cyano-1-(6-(cyclohexyl(3-morpholinopropyl)amino)hexyl)-3-(pyridin-4-yl)guanidine] yielded a 50% inhibitory concentration (IC50) of 11.2 nM.
On to `O=C(c1ccccc1)N(CCCCCCCCNC(=S)Nc1ccncc1)CCCN1CCOCC1` [Compound 1075, N-(3-morpholinopropyl)-N-(8-(3-(pyridin-4-yl)thioureido)octyl)benzamide], for which the 50% inhibitory concentration (IC50) was 0.39 nM.
With `CCON(CCCCCCCCN/C(=N\C#N)Nc1ccncc1)Cc1ccccc1` [Compound 1085, 1-(8-(benzyl(ethoxy)amino)octyl)-2-cyano-3-(pyridin-4-yl)guanidine] the figure was 0.062 nM.
Consider `CCS(=O)(=O)N(CCCCCCCN/C(=N\C#N)Nc1ccncc1)OCC1CCCCC1` [Compound 1060, N-(7-(2-cyano-3-(pyridin-4-yl)guanidino)heptyl)-N-(cyclohexylmethoxy)ethanesulfonamide], for which the IC50 is 0.049 nM.
With `O=C(NCCCCCCCCN(CCCN1CCOCC1)C(=O)c1ccccc1)NCc1cccnc1` [Compound 1073, N-(3-morpholinopropyl)-N-(8-(3-(Pyridin-3-ylmethyl)ureido)octyl)benzamide] the figure was 0.31 nM; with `N#C/N=C(\NCCCCCCNOCC1CCCCC1)Nc1ccncc1` [Compound 1110, 2-cyano-1-(8-(cyclohexylmethoxyamino)hexyl)-3-(pyridin-4-yl)guanidine], 0.015 nM; with `CS(=O)(=O)N(CCCCCN/C(=N\C#N)Nc1ccncc1)OCC1CCCCC1` [Compound 1143], 0.081 nM.
With `CCN(CCCCCCCCN/C(=N\C#N)Nc1ccncc1)OCCN1CCOCC1` [Compound 1086, 2-Cyano-1-(8-(ethyl(2-morpholinoethoxy)amino)octyl)-3-(pyridin-4-yl)guanidine oxalate] the figure was 0.024 nM.

Values taken from patent publication US20120264755A1, “PYRIDINYL DERIVATIVES AS INHIBITORS OF ENZYME NICOTINAMIDE PHOSPHORIBOSYLTRANSFERASE” (TopoTarget, priority 2009, published 2012).
